Results reported in patent US10918624B2, “Anti-cancer azole compounds” (Imam Abdulrahman Bin Faisal University, priority 2019, dated 2021).
Entries after “also recorded” stand apart in the source; their conditions may differ.

Experiments:
HCT-116 cells [1] = assay: Cancer cell morphology (inverted microscope); format: cell-based, human; conditions: for cancer cell morphology change: 48 hours, HCT-116; for microscopic evaluation of treated cancer cells (overall): HCT-116, versus control
Source text: Three samples were examined from each experiment.

[2] = Thermogravimetric analyses (TGA); format: physicochemical; conditions: 25° C. to 700° C., 10° C. min, nitrogen
Description: TGA were carried on Perkin-Elmer, simultaneous thermal analyzer (STA6000, PerkinElmer, Ohio, USA). TGA data of azole-BG samples were obtained at temperature in the range of 25° C. to 700° C. at the rate of 10° C. min under inert nitrogen flowing at a rate of 20 mL/min.

HCT-116 cells [3] = assay: Cancer cells viability by MTT assay; conditions: for cancer cell viability (% of control) / effect on cancer cells survivability (in words): 48 hrs; for cancer cell viability (% of control) / effect on cancer cells survivability (in words) / attenuating cancer cells proliferation (in words): HCT-116; for effect on cancer cells survivability (in words): 100, 500 and 750 ug/mL; for dose dependence of effect on cancer cell survivability: HCT-116, FIG. 11
Description: HCT-116 cells were grown as previously described method by Khan et al. [“Fluorescent magnetic submicronic polymer (FMSP) nanoparticles induce cell death in human colorectal carcinoma cells” Artif Cells Nanomed Biotechnol. (2018 Jul. 25) 1-7, doi: 10.1080/21691401.2018.1491476]. In brief, HCT-116 cells were grown in the DMEM, 10% fetal bovine serum, L-glutamine, selenium chloride, penicillin, and streptomycin. The cells were culture in incubator (Heracell 150i, Thermo-scientific, USA) containing 5% CO2 at 37°. Finally, confluence cells were seeded into 96-well cell plates and once the cells become 80% confluence, the cancer cells were treated with different concentrations (100 μg/mL, 500 μg/mL and 750 μg/mL) of BG-(Tri)2, BG-(ATri)2, BG-(Atet)2, BG-(Imi)2, BG-(H3PO4)2, respectively. Thereafter, the treated cancer cells were microscopically monitored after 24 hrs and 48 hrs intervals. Three samples were examined from each experiment.
The effects of BG-(Tri)2, BG-(ATri)2, BG-(Atet)2, BG-(Imi)2, BG-(H3PO4)2 on cancer cells were determined by MTT assay. The cancer cells were seeded with 6×10^4 cells/mL in 96-well culture plates containing DMEM, 10% Fetal bovine serum, penicillin, and streptomycin and were incubated in CO2 incubator till they become 80% confluence. Then, cancer cells were treated with BG-(Tri)2, BG-(ATri)2, BG-(Atet)2, BG-(Imi)2, BG-(H3PO4)2 at concentrations of 100 μg/mL, 500 μg/mL and 750 μg/mL, respectively. […] MTT (5.0 mg/mL) solution was added in each well and cells were again incubated for 4 hrs in the CO2 incubator and finally media was changed with the addition of DMSO. The color intensity of each sample was measured using an ELISA plate reader (Biotek Instruments, USA) at wavelength 570 nm.
The following formula was used to calculate percentage of cell viability: % of Cell viability=Optical density (O.D) of BG-(Tri)2,BG-(ATri)2,BG-(Atet)2,BG-(Imi)2,BG-(H3PO4)2 cells/Optical density (O.D) of control cells×100 Statistical Analysis:
The mean±standard deviation (SD) from control and BG-(Tri)2, BG-(ATri)2, BG-(Atet)2, BG-(Imi)2, BG-(H3PO4)2 treated groups were calculated. All statistical analyses were completed with GraphPad Prism 6 (GraphPad Software). The difference between control and BG-(Tri)2, BG-(ATri)2, BG-(Atet)2, BG-(Imi)2, BG-(H3PO4)2 groups by a one-way ANOVA test (P<0.05). P<0.05 was considered as statistically significant.

Structure (SMILES)	cancer cell morphology change (HCT-116 cells [1]; 100 μg/mL)	cancer cell morphology change (HCT-116 cells [1]; 500 μg/mL)	cancer cell morphology change (HCT-116 cells [1]; 500 μg/mL, listed as BG-(H3PO4))	cancer cell morphology change (HCT-116 cells [1]; 750 μg/mL)	cancer cell morphology change (HCT-116 cells [1]; 750 μg/mL, listed as BG-(H3PO4))	microscopic evaluation of treated cancer cells (overall) (HCT-116 cells [1])	temperature of weight loss / degradation by TGA [2]	cancer cell viability (% of control) (HCT-116 cells [3]; 100 ug/mL) [%]	cancer cell viability (% of control) (HCT-116 cells [3]; 500 ug/mL) [%]	cancer cell viability (% of control) (HCT-116 cells [3]; 750 ug/mL) [%]	effect on cancer cells survivability (in words) (HCT-116 cells [3])	dose dependence of effect on cancer cell survivability (HCT-116 cells [3])	attenuating cancer cells proliferation (in words) (HCT-116 cells [3])	cancer cell morphology change (HCT-116 cells [1]; 500 μg/mL, listed as BG-(ATet)2)	cancer cell morphology change (HCT-116 cells [1]; 750 μg/mL, listed as BG-(ATet)2)
O=P(O)(O)OCC(O)COCCCCOCC(O)COP(=O)(O)O (stereo not drawn) [BG-(H3PO4)2]	disintegrations of cancer cells	strong nuclear condensation and augmentation	nuclear condensation and augmentation	strong nuclear condensation and augmentation	strong nuclear condensation and augmentation and showed the beginning of cell membrane disruption	not only affected the cancer cell membrane, but also induced nuclear condensation, augmentation and disintegration	Above 200 °C	85.31	55.93	53.12	profound effects on cancer cells survivability	dose dependent effects on cancer cell survivability			
OC(COCCCCOCC(O)Cn1ccnc1)Cn1ccnc1 (stereo not drawn) [BG-(Imi)2]	strong nucleus condensation and nuclear augmentation	further nucleus condensation and augmentation; also recorded: nuclear condensation and augmentation		significant loss of cell population; also recorded: strong nuclear condensation and augmentation and showed the beginning of cell membrane disruption		not only affected the cancer cell membrane, but also induced nuclear condensation, augmentation and disintegration		25	21.87	18.75	most profound effects on the cancer cells; also recorded: profound effects on cancer cells survivability	dose dependent effects on cancer cell survivability	highly effective in attenuating cancer cells proliferation		
OC(CNc1nnn[nH]1)COCCCCOCC(O)CNc1nnn[nH]1 (stereo not drawn) [BG-(Atet)2]	strong nucleus condensation and nuclear augmentation	Further nucleus condensation and augmentation		significant loss of cell population		not only affected the cancer cell membrane, but also induced nuclear condensation, augmentation and disintegration		25	22.50	18.75	most profound effects on the cancer cells; also recorded: profound effects on cancer cells survivability	dose dependent effects on cancer cell survivability	highly effective in attenuating cancer cells proliferation	nuclear condensation and augmentation	strong nuclear condensation and augmentation and showed the beginning of cell membrane disruption
OC(COCCCCOCC(O)Cn1cncn1)Cn1cncn1 (stereo not drawn) [BG-(Tri)2]	moderate levels of nucleus condensation and nuclear augmentation	Strong nuclear condensation and augmentation and the beginning of cell membrane disruption		significant loss of cell population; also recorded: nuclear condensation and augmentation		not only affected the cancer cell membrane, but also induced nuclear condensation, augmentation and disintegration		75	26.86	21.87	most profound effects on the cancer cells; also recorded: profound effects on cancer cells survivability	dose dependent effects on cancer cell survivability	highly effective in attenuating cancer cells proliferation		
OC(CNc1ncn[nH]1)COCCCCOCC(O)CNc1ncn[nH]1 (stereo not drawn) [BG-(ATri)2]	significant levels of nucleus condensation and nuclear augmentation	nuclear condensation and augmentation		Significant loss of cell population; also recorded: strong nuclear condensation and augmentation and showed the beginning of cell membrane disruption		not only affected the cancer cell membrane, but also induced nuclear condensation, augmentation and disintegration		28.12	25.62	24.68	most profound effects on the cancer cells; also recorded: profound effects on cancer cells survivability	dose dependent effects on cancer cell survivability	highly effective in attenuating cancer cells proliferation		
